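Step 1: Grow cells in 96-well plates. Step 2: Expose to compound for 48 hours at 5 concentrations. Step 3: Interpolate endpoints linearly; if unreached, use highest concentration. Here, GI50 denotes the concentration required for 50% inhibition of growth. TGI denotes the concentration required for complete inhibition of growth.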
Legend:
Test in all cases: inhibition of tumour cell growth, NCI panel, 48 h
DU-145 prostate = test system: DU-145 prostate
SK-MEL-2 melanoma = test system: SK-MEL-2 melanoma
COLO 205 colon = test system: COLO 205 colon
HOP-92 NSCLC = test system: HOP-92 NSCLC
NCI-H522 lung = test system: NCI-H522 lung
OVCAR-4 ovarian = test system: OVCAR-4 ovarian
OVCAR-8 ovarian = test system: OVCAR-8 ovarian
SW-620 colon = test system: SW-620 colon
A549 NSCLC = test system: A549 NSCLC
SN12C renal = test system: SN12C renal
A498 renal = test system: A498 renal
HCC-2998 colon = test system: HCC-2998 colon
MALME-3M melanoma = test system: MALME-3M melanoma
CAKI-1 renal = test system: CAKI-1 renal
NCI/ADR-RES ovarian = test system: NCI/ADR-RES ovarian
786-0 renal = test system: 786-0 renal
HS 578T breast = test system: HS 578T breast
HL-60(TB) leukemia = test system: HL-60(TB) leukemia
MCF7 breast = test system: MCF7 breast
SNB-75 CNS = test system: SNB-75 CNS
SF-539 CNS = test system: SF-539 CNS
ACHN renal = test system: ACHN renal
MOLT-4 leukemia = test system: MOLT-4 leukemia
MDA-MB-231 breast = test system: MDA-MB-231 breast
BT-549 breast = test system: BT-549 breast
OVCAR-5 ovarian = test system: OVCAR-5 ovarian
PC-3 prostate = test system: PC-3 prostate
SK-MEL-5 melanoma = test system: SK-MEL-5 melanoma
SK-OV-3 ovarian = test system: SK-OV-3 ovarian
HT29 colon = test system: HT29 colon
HCT-116 colon = test system: HCT-116 colon
UACC-62 melanoma = test system: UACC-62 melanoma
LOX IMVI melanoma = test system: LOX IMVI melanoma
RXF 393 renal = test system: RXF 393 renal
CCRF-CEM leukemia = test system: CCRF-CEM leukemia
MDA-MB-435 = test system: MDA-MB-435
NCI-H226 lung = test system: NCI-H226 lung
IGROV1 ovarian = test system: IGROV1 ovarian
UO-31 renal = test system: UO-31 renal
K-562 leukemia = test system: K-562 leukemia
NCI-H460 lung = test system: NCI-H460 lung
U251 CNS = test system: U251 CNS
HCT-15 colon = test system: HCT-15 colon
OVCAR-3 ovarian = test system: OVCAR-3 ovarian
UACC-257 melanoma = test system: UACC-257 melanoma
T-47D breast = test system: T-47D breast
SK-MEL-28 melanoma = test system: SK-MEL-28 melanoma
SF-268 CNS = test system: SF-268 CNS
SNB-19 CNS = test system: SNB-19 CNS
HOP-62 NSCLC = test system: HOP-62 NSCLC
M14 melanoma = test system: M14 melanoma
NCI-H23 lung = test system: NCI-H23 lung
KM12 colon = test system: KM12 colon
SF-295 CNS = test system: SF-295 CNS
SR leukemia = test system: SR leukemia
RPMI-8226 leukemia = test system: RPMI-8226 leukemia

CCOc1ccc(N(C)c2ccc(/C=C/C3=[N+](C)c4ccccc4C3(C)C)cc2)cc1
GI50 (DU-145 prostate): 421 nM | TGI (DU-145 prostate): 1860 nM | GI50 (SK-MEL-2 melanoma): 361 nM | TGI (SK-MEL-2 melanoma): 1250 nM | GI50 (COLO 205 colon): 211 nM | TGI (COLO 205 colon): 810 nM | GI50 (HOP-92 NSCLC): 197 nM | TGI (HOP-92 NSCLC): 860 nM | GI50 (NCI-H522 lung): 167 nM | TGI (NCI-H522 lung): 780 nM | GI50 (OVCAR-4 ovarian): 399 nM | TGI (OVCAR-4 ovarian): 2180 nM | GI50 (OVCAR-8 ovarian): 117 nM | TGI (OVCAR-8 ovarian): 1170 nM | GI50 (SW-620 colon): 175 nM | TGI (SW-620 colon): 1190 nM | GI50 (A549 NSCLC): 201 nM | TGI (A549 NSCLC): 1350 nM | GI50 (SN12C renal): 309 nM | TGI (SN12C renal): 1520 nM | GI50 (A498 renal): 189 nM | TGI (A498 renal): 10200 nM | GI50 (HCC-2998 colon): 391 nM | TGI (HCC-2998 colon): 1550 nM | GI50 (MALME-3M melanoma): 184 nM | TGI (MALME-3M melanoma): 848 nM | GI50 (CAKI-1 renal): 784 nM | TGI (CAKI-1 renal): 2480 nM | GI50 (NCI/ADR-RES ovarian): 2430 nM | TGI (NCI/ADR-RES ovarian): 16600 nM | GI50 (786-0 renal): 562 nM | TGI (786-0 renal): 1920 nM | GI50 (HS 578T breast): 314 nM | TGI (HS 578T breast): 2000 nM | GI50 (HL-60(TB) leukemia): 59 nM | TGI (HL-60(TB) leukemia): 257 nM | GI50 (MCF7 breast): 498 nM | TGI (MCF7 breast): 2790 nM | GI50 (SNB-75 CNS): 1130 nM | TGI (SNB-75 CNS): 2760 nM | GI50 (SF-539 CNS): 771 nM | TGI (SF-539 CNS): 2200 nM | GI50 (ACHN renal): 306 nM | TGI (ACHN renal): 1110 nM | GI50 (MOLT-4 leukemia): 193 nM | TGI (MOLT-4 leukemia): 709 nM | GI50 (MDA-MB-231 breast): 485 nM | TGI (MDA-MB-231 breast): 2220 nM | GI50 (BT-549 breast): 216 nM | TGI (BT-549 breast): 1160 nM | GI50 (OVCAR-5 ovarian): 1280 nM | TGI (OVCAR-5 ovarian): 2920 nM | GI50 (PC-3 prostate): 75.9 nM | TGI (PC-3 prostate): 793 nM | GI50 (SK-MEL-5 melanoma): 192 nM | TGI (SK-MEL-5 melanoma): 784 nM | GI50 (SK-OV-3 ovarian): 354 nM | TGI (SK-OV-3 ovarian): 1440 nM | GI50 (HT29 colon): 137 nM | TGI (HT29 colon): 1060 nM | GI50 (HCT-116 colon): 72.5 nM | TGI (HCT-116 colon): 1100 nM | GI50 (UACC-62 melanoma): 444 nM | TGI (UACC-62 melanoma): 2160 nM | GI50 (LOX IMVI melanoma): 133 nM | TGI (LOX IMVI melanoma): 364 nM | GI50 (RXF 393 renal): 471 nM | TGI (RXF 393 renal): 1950 nM | GI50 (CCRF-CEM leukemia): 84.1 nM | TGI (CCRF-CEM leukemia): 647 nM | GI50 (MDA-MB-435): 231 nM | TGI (MDA-MB-435): 1320 nM | GI50 (NCI-H226 lung): 369 nM | TGI (NCI-H226 lung): 2180 nM | GI50 (IGROV1 ovarian): 257 nM | TGI (IGROV1 ovarian): 982 nM | GI50 (UO-31 renal): 449 nM | TGI (UO-31 renal): 1790 nM | GI50 (K-562 leukemia): 359 nM | TGI (K-562 leukemia): 10300 nM | GI50 (NCI-H460 lung): 306 nM | TGI (NCI-H460 lung): 1380 nM | GI50 (U251 CNS): 122 nM | TGI (U251 CNS): 1170 nM | GI50 (HCT-15 colon): 596 nM | TGI (HCT-15 colon): 2110 nM | GI50 (OVCAR-3 ovarian): 151 nM | TGI (OVCAR-3 ovarian): 1090 nM | GI50 (UACC-257 melanoma): 188 nM | TGI (UACC-257 melanoma): 861 nM | GI50 (T-47D breast): 392 nM | TGI (T-47D breast): 2670 nM | GI50 (SK-MEL-28 melanoma): 680 nM | TGI (SK-MEL-28 melanoma): 2110 nM | GI50 (SF-268 CNS): 933 nM | TGI (SF-268 CNS): 2650 nM | GI50 (SNB-19 CNS): 367 nM | TGI (SNB-19 CNS): 1800 nM | GI50 (HOP-62 NSCLC): 482 nM | TGI (HOP-62 NSCLC): 1910 nM | GI50 (M14 melanoma): 366 nM | TGI (M14 melanoma): 1730 nM | GI50 (NCI-H23 lung): 125 nM | TGI (NCI-H23 lung): 1340 nM | GI50 (KM12 colon): 219 nM | TGI (KM12 colon): 1050 nM | GI50 (SF-295 CNS): 470 nM | TGI (SF-295 CNS): 3890 nM | GI50 (SR leukemia): 49.9 nM | TGI (SR leukemia): 633 nM | GI50 (RPMI-8226 leukemia): 139 nM | TGI (RPMI-8226 leukemia): 602 nM
